Measured values published in patent publication US20110034526A1, “Benzimidazole Compounds” (Wyeth LLC, priority 2007, published 2011).
Like-named read-outs stand apart in the source and are kept apart here.

Tests used:
human LXRβ = target: T1, human LXRβ (Homo sapiens, UniProt P55055); experiment: Ligand-binding test procedure for human LXRβ (3H T0901317 tracer, flash plates)
T1 construct: biotin (biotinylated); made in house; host or cells: E. coli (crude extract)
T1 sequence (P55055 1-460): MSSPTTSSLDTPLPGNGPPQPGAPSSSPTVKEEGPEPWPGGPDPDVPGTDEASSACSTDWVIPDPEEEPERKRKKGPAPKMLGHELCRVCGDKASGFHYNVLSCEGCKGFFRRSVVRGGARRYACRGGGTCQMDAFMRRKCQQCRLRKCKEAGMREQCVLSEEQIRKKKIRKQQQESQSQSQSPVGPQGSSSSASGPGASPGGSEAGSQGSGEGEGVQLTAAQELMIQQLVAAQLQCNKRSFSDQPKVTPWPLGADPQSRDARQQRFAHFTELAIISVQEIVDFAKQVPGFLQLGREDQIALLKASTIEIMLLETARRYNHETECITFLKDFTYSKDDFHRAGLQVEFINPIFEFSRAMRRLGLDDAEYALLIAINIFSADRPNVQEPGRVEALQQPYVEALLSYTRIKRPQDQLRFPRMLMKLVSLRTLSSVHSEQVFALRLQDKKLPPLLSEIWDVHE
Description: Receptor source: E. coli extracted from cells expressing biotinylated hLXRβ. Extract was made in a similar buffer as above, but with 50 mM TRIS.
Washed streptavidin and coated flash plates with wash buffer. Diluted receptor extract to give Bmax ˜4000 cpm and add to the wells. Wrapped the plates in aluminum foil and stored them at +4° C. overnight.
(§1) Made a dilution series in DMSO of the test ligands. Made a 5 nM solution of the radioactive tracer in buffer. Mixed 250 μl diluted tracer with 5 μl of the test ligand from each concentration of the dilution series. Washed the receptor-coated flash plates. Added 200 μl per well of the ligand/radiolabel mixture to the receptor-coated flash plates. Wrapped the plates in aluminum foil and incubate at +4° C. over night.
Aspirated wells, and washed the flashed plates. Sealed the plate. Measured the remaining radioactivity in the plate.

human LXRα = target: T2, human LXRα (Homo sapiens, UniProt Q13133); experiment: Ligand-binding test procedure for human LXRα (3H T0901317 tracer, flash plates); settings: biotinylated hLXRα, tracer 3H T0901317
T2 construct: biotin (biotinylated); made in house; host or cells: E. coli (crude extract)
T2 sequence (Q13133 1-447): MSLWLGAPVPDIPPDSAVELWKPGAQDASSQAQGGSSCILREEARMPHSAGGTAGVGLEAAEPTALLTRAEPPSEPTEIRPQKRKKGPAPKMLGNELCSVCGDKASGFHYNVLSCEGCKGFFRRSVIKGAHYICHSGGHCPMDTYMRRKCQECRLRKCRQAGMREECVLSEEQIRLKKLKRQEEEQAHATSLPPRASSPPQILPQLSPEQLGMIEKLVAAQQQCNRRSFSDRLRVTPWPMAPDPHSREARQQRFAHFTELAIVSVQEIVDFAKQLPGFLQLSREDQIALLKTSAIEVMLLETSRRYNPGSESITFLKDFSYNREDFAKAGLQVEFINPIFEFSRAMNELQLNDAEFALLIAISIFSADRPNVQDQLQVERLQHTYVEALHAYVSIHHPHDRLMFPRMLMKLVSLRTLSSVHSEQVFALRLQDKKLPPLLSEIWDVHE
Description: Receptor source: E. coli extract from cells expressing biotinylated hLXRcc. Extract was made in a similar buffer as above, but with 50 mM TRIS.
Washed streptavidin and coated flash plates with wash buffer. Diluted receptor extract to give Bmax ˜4000 cpm and add to the wells. Wrapped the plates in aluminum foil and stored them at +4° C. over night.
as §1
Aspirated wells, and wash the flashed plates. Sealed the plate. Measured the remaining radioactivity in the plate.

ABCA1 gene = experiment: Quantitative analysis of ABCA1 gene regulation in THP-1 cells (real-time PCR); assay type: cell-based, human; settings: read-out: EC50 ABCA1
Description: The compounds of formula (I) effect on the regulation of the ABCA1 gene was evaluated using the following procedure.
The THP-1 monocytic cell line (ATCC # TIB-202) was obtained from American Type Culture Collection (Manassas, Va.) and cultured in RPMI 1640 medium (Gibco, Carlsbad, Calif.) containing 10% FBS, 2 mM L-glutamine, and 55 uM beta-Mercaptoethanol (BME). […] Differentiated THP-1 cells were treated with test compounds or ligands dissolved in DMSO (Sigma, D-8779) in culture medium lacking phorbal ester. […] Unstimulated cells treated with vehicle were included as negative controls on each plate. An LXR agonist reference, N-(2,2,2-trifluoro-ethyl)-N-[4-(2,2,2-trifluoro-1-hydroxy-1-trifluoromethyl-ethyl)-phenyl]-benzenesulfonamide (Schultz, Joshua R., Genes & Development (2000), 14(22), 2831-2838), was dosed at 1.0 uM and served as a positive control. […] Results of antagonist analysis are expressed as % antagonism and IC50 (in μM).
Total cellular RNA was isolated from treated cells cultured in 96-well plates using PrepStation 6100 (Applied Biosystems, Foster City, Calif.), according to the manufacturer's recommendations. RNA was resuspended in ribonuclease-free water and stored at −70° C. prior to analysis. RNA concentrations were quantitated with RiboGreen test procedure, #R-11490 (Molecular Probes, Eugene, Oreg.).
Gene-specific mRNA quantitation was performed by real-time PCR with the Perkin Elmer Corp. chemistry on an ABI Prism 7700 Sequence detection system (Applied Biosystems, Foster City, Calif.) according to the manufacturer's instructions. Samples (50-100 ng) of total RNA were assayed in duplicate or triplicate in 50 μl reactions using one-step RT-PCR and the standard curve method to estimate specific mRNA concentrations. Sequences of gene-specific primer and probe sets were designed with Primer Express Software (Applied Biosystems, Foster City, Calif.). […] RT and PCR reactions were performed according to PE Applied Biosystem's protocol for Taqman Gold RT-PCR or Qiagen's protocol for Quantitect probe RT-PCR. Relative levels of ABCA1 mRNA are normalized using GAPDH mRNA or 18S rRNA probe/primer sets purchased commercially (Applied Biosystems, Foster City, Calif.).
Mean, standard deviation and statistical significance of duplicate evaluations of RNA samples were assessed using ANOVA, one-way analysis of variance using SAS analysis.

[1] = Gene regulation by LXR (Human), differentiated THP-1 cells, 18 hrs, ABCA1 mRNA

| SMILES | IC50 (human LXRβ) [nM] | IC50 (human LXRα) [nM] | EC50 (ABCA1 gene; [1]) [nM] | EC50 (ABCA1 gene; Homo sapiens, THP-1, 18 h) [nM] |
| --- | --- | --- | --- | --- |
| CS(=O)(=O)c1cccc(Oc2cccc(-n3c(C(F)F)nc4c(C(F)(F)F)cccc43)c2)c1 [Example 33, 2-(difluoromethyl)-1-{3-[3-(methylsulfonyl)phenoxy]phenyl}-4-(trifluoromethyl)-1H-benzimidazole] | 2 | 36 | 190 |  |
| CCCc1nc2c(C(F)(F)F)cccc2n1-c1cccc(Oc2cccc(S(C)(=O)=O)c2)c1 [Example 27, 1-{3-[3-(methylsulfonyl)phenoxy]phenyl}-2-propyl-4-(trifluoromethyl)-1H-benzimidazole] | 0.9 | 3.9 | 22 |  |
| Cc1nc2c(Cl)cccc2n1-c1cccc(Oc2ccc(S(C)(=O)=O)cc2)c1 [Example 48, 4-chloro-2-methyl-1-{3-[4-(methylsulfonyl)phenoxy]phenyl}-1H-benzimidazole] | 6 | 64 |  | 1120 |
| CCc1nc2c(C(F)(F)F)cccc2n1-c1ccc(Oc2cc(F)cc(S(C)(=O)=O)c2)cc1 [Example 69, 2-ethyl-1-{4-[3-fluoro-5-(methylsulfonyl)phenoxy]-phenyl}-4-(trifluoromethyl)-1H-benzimidazole] | 20 | 280 | 245 |  |
| Cc1nc2c(C(F)(F)F)cccc2n1-c1cccc(Oc2cc(F)cc(S(C)(=O)=O)c2)c1 [Example 8, 1-{3-[3-fluoro-5-(methylsulfonyl)phenoxy]phenyl}-2-methyl-4-(trifluoromethyl)-1H-benzimidazole] |  |  | 430 |  |
| CS(=O)(=O)c1cccc(Oc2cccc(-n3cnc4c(C(F)(F)F)cccc43)c2)c1 [Example 25, 1-{3-[3-(methylsulfonyl)phenoxy]phenyl}-4-(trifluoromethyl)-1H-benzimidazole] |  |  | 907 |  |
| Cc1cc(Oc2cccc(S(=O)(=O)C(C)C)c2)ccc1-n1c(C)nc2c(C(F)(F)F)cccc21 [Example 95, 2-methyl-1-(2-methyl-4-{3-[(1-methylethyl)sulfonyl]phenoxy}phenyl)-4-(trifluoromethyl)-1H-benzimidazole] | 61 | 1290 | 409 |  |
| CCc1nc2c(C(F)(F)F)cccc2n1-c1ccc(Oc2cccc(S(C)(=O)=O)c2)cc1 [Example 67, 2 ethyl-1-{4-[3-(methylsulfonyl)phenoxy]phenyl}-4-(trifluoromethyl)-1H-benzimidazole] | 99 | 197 | 846 |  |
| COc1ccc(-n2c(C(F)(F)c3ccccc3)nc3c(C(F)(F)F)cccc32)cc1 [Example 74, 2-[difluoro(phenyl)methyl]-1-(4-methoxyphenyl)-4-(trifluoromethyl)-1H-benzimidazole] | 32 | 635 | 440 |  |
| CC(C)S(=O)(=O)c1cccc(Oc2ccc(-n3c(C(F)(F)F)nc4c(C(F)(F)F)cccc43)cc2)c1 [Example 73, 1-{4-[3-(isopropylsulfonyl)phenoxy]phenyl}-2,4-bis(trifluoromethyl)-1H-benzimidazole] | 47 | 800 | 470 |  |
| Cc1nc2c(C(F)(F)F)cccc2n1-c1cccc(Oc2cccc(S(=O)(=O)CCCN)c2)c1 [Example 37, 3-[(3-{3-[2-methyl-4-(trifluoromethyl)-1H-benzimidazol-1-yl]phenoxy}phenyl)sulfonyl]propan-1-amine] | 41 | 1470 | 4700 |  |
| CS(=O)(=O)c1ccc(Oc2ccc(Cl)c(-n3cnc4c(C(F)(F)F)cccc43)c2)cc1 [Example 83, 1-{2-chloro-5-[4-(methylsulfonyl)phenoxy]phenyl}-4-(trifluoromethyl)-1H-benzimidazole] | 33 | 277 |  | 110 |
| CCCS(=O)(=O)c1cccc(Oc2cccc(-n3c(C)nc4c(C(F)(F)F)cccc43)c2)c1 [Example 10, 2-methyl-1-{3-[3-(propylsulfonyl)phenoxy]phenyl}-4-(trifluoromethyl)-1H-benzimidazole] |  |  | 620 |  |
| Cc1nc2c(C(F)(F)F)cccc2n1-c1cccc(-c2cccc(S(C)(=O)=O)c2)c1 [Example 75, 2-methyl-1-[3′-(methylsulfonyl)biphenyl-3-yl]-4-(trifluoromethyl)-1H-benzimidazole] | 12.7 | 304 |  | 215 |
| CCS(=O)(=O)c1cccc(Oc2ccc(-n3c(C)nc4c(C(F)(F)F)cccc43)cc2)c1 [Example 65, 1-{4-[3-(ethylsulfonyl)phenoxy]phenyl}-2-methyl-4-(trifluoromethyl)-1H-benzimidazole] | 1.3 | 7.2 | 355 |  |
| Cc1nc2c(C(F)(F)F)cccc2n1-c1cccc(Oc2cccc(S(=O)(=O)C(C)C)c2)c1 [Example 6, 1-{3-[3-(isopropylsulfonyl)phenoxy]phenyl}-2-methyl-4-(trifluoromethyl)-1H-benzimidazole] |  |  | 710 |  |
| CCS(=O)(=O)c1cccc(Oc2cccc(-n3c(C)nc4c(C(F)(F)F)cccc43)c2)c1 [Example 5, 1-{3-[3-(ethylsulfonyl)phenoxy]phenyl}-2-methyl-4-(trifluoromethyl)-1H-benzimidazole] |  |  | 395 |  |
| CS(=O)(=O)c1cccc(Oc2cccc(-n3c(C4CC4)nc4c(C(F)(F)F)cccc43)c2)c1 [Example 31, 2-cyclopropyl-1-{3-[3-(methylsulfonyl)phenoxy]phenyl}-4-(trifluoromethyl)-1H-benzimidazole] |  |  | 760 |  |
| Cc1nc2c(C(F)(F)F)cccc2n1-c1cccc(Oc2cccc(S(=O)(=O)CCCO)c2)c1 [Example 9, 3-[(3-{3-[2-methyl-4-(trifluoromethyl)-1H-benzimidazol-1-yl]phenoxy}-phenyl)sulfonyl]propan-1-ol] |  |  | 610 |  |
| CS(=O)(=O)c1cccc(Oc2cccc(-n3c(-c4ccccc4)nc4c(C(F)(F)F)cccc43)c2)c1 [Example 30, 1-{3-[3-(methylsulfonyl)phenoxy]phenyl}-2-phenyl-4-(trifluoromethyl)-1H-benzimidazole] |  |  | 160 |  |
| Cc1nc2c(Cl)cccc2n1-c1cccc(Oc2cccc(S(C)(=O)=O)c2)c1 [Example 40, 4-chloro-2-methyl-1-{3-[3-(methylsulfonyl)phenoxy]phenyl}-1H-benzimidazole] |  |  | 315 |  |
